Test results reported in US20250281424A1 (New York Blood Center, Inc, priority 2020, published 2025).

Target: T1, human PF4 (Homo sapiens, UniProt P02776)
T1 construct: PF4 is a 70 amino acid, lysine-rich 7.8 kDa platelet-specific protein; made in house; host or cells: Escherichia coli BL21DE3 pLysS (pT7-7) and/or Drosophila S2 cells
T1 sequence (P02776 32-101): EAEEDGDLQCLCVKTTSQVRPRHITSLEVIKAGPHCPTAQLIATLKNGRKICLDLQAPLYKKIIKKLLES
Assay: Inhibition of PF4 tetramer formation (BS3 cross-linking, SDS-PAGE)
Type: biochemical
Conditions: for inhibition at 1 µM: 1 μM inhibitor; for inhibition at 1 µM / inhibition at 3 µM / inhibition at 5 µM / inhibition at 10 µM: read-out: % inhibition of PF4 tetramer formation at single concentration of inhibitor; for inhibition at 3 µM: 3 μM inhibitor (column A); for inhibition at 5 µM: 5 μM inhibitor; for inhibition at 10 µM: 10 μM inhibitor (column A); for IC50: read-out: IC50 of PF4 tetramer formation inhibition
Method in brief: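 Monomer, dimer, trimer and tetramer fractions were quantified by densitometry after reducing 12% SDS-PAGE of BS3-cross-linked (0.2 mM, 30 min, room temperature) PF4. Before cross-linking, 10 μg/ml E. coli-expressed human WT PF4 in PBS was exposed to compound for 15 min at 37° C or 60 min at room temperature; controls lacked compound.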

inhibition at 5 µM [%]	inhibition at 10 µM [%]	Compound	inhibition at 1 µM [%]	inhibition at 3 µM [%]	IC50 [µM]
68	59	O=C(NC1CCCC1)C1C(=O)c2ccc(C(c3ccc4c(c3)C(=O)C(C(=O)NC3CCCC3)C4=O)(C(F)(F)F)C(F)(F)F)cc2C1=O (centres unmarked) [Example 109, N-cyclopentyl-5-{2-[2-(cyclopentylcarbamoyl)-1,3-dioxo-2,3-dihydro-1H-inden-5-yl]-1,1,1,3,3,3-hexafluoropropan-2-yl}-1,3-dioxo-2,3-dihydro-1H-indene-2-carboxamide]			
77	92	COC(=O)CCCC(=O)C1C(=O)c2ccc(-c3ccc4c(c3)C(=O)C(C(=O)CCCC(=O)OC)C4=O)cc2C1=O (centres unmarked) [Example 226, methyl 5-[2′-(5-methoxy-5-oxopentanoyl)-1,1′,3,3′-tetraoxo-1H,1′H,2H,2′H,3H,3′H-[5,5′-biinden]-2-yl]-5-oxopentanoate]			4
12	58	CCOC(=O)CNC(=O)C1C(=O)c2ccc(C(=O)c3ccc4c(c3)C(=O)C(C(=O)NCC(=O)OCC)C4=O)cc2C1=O (centres unmarked) [Example 30, 5,5′-5,5′-carbonylbis([(1,3-dioxo-indane-2-carbonyl)-amino]-acetic acid ethyl ester)]			
75	88	O=C1c2ccc(S(=O)(=O)c3ccc4c(c3)C(=O)C(C(=O)C3CCN(C(=O)OCc5ccccc5)C3)C4=O)cc2C(=O)C1C(=O)C1CCN(C(=O)OCc2ccccc2)C1 (centres unmarked) [Example 160, benzyl 3-{5-[(2-{1-[(benzyloxy)carbonyl]pyrrolidine-3-carbonyl}-1,3-dioxo-2,3-dihydro-1H-inden-5-yl)sulfonyl]-1,3-dioxo-2,3-dihydro-1H-indene-2-carbonyl}pyrrolidine-1-carboxylate]			5.1
97	100	O=C1c2ccc(S(=O)(=O)c3ccc4c(c3)C(=O)C(C(=O)[C@@H]3C[C@H]3C(=O)O)C4=O)cc2C(=O)C1C(=O)[C@@H]1C[C@H]1C(=O)O (stereo in doubt) [Example 223, (1R,2R)-2-[5-({2-[(1R,2R)-2-carboxycyclopropanecarbonyl]-1,3-dioxo-2,3-dihydro-1H-inden-5-yl}sulfonyl)-1,3-dioxo-2,3-dihydro-1H-indene-2-carbonyl]cyclopropane-1-carboxylic acid]			1.4
79	86	O=C(c1ccc2c(c1)C(=O)C(C(=O)Cc1ccccc1)C2=O)c1ccc2c(c1)C(=O)C(C(=O)Cc1ccccc1)C2=O (centres unmarked) [Example 190, 5-[1,3-dioxo-2-(2-phenylacetyl)-2,3-dihydro-1H-indene-5-carbonyl]-2-(2-phenylacetyl)-2,3-dihydro-1H-indene-1,3-dione]			

Second part, the molecule before the results:

Compound	inhibition at 5 µM [%]	inhibition at 10 µM [%]	inhibition at 1 µM [%]	inhibition at 3 µM [%]	IC50 [µM]
CC[C@H](C)[C@H](NC(=O)C1C(=O)c2ccc(Oc3ccc4c(c3)C(=O)C(C(=O)N[C@H](C(=O)OC)[C@@H](C)CC)C4=O)cc2C1=O)C(=O)OC (stereo partly drawn) [Example 331, methyl (2S,3S)-2-({5-[(2-{[(2S,3S)-1-methoxy-3-methyl-1-oxopentan-2-yl]carbamoyl}-1,3-dioxo-2,3-dihydro-1H-inden-5-yl)oxy]-1,3-dioxo-2,3-dihydro-1H-inden-2-yl}formamido)-3-methylpentanoate]			37	66	
CC(C)(C)OC(=O)N1CCOC(C(=O)C2C(=O)c3ccc(S(=O)(=O)c4ccc5c(c4)C(=O)C(C(=O)C4CN(C(=O)OC(C)(C)C)CCO4)C5=O)cc3C2=O)C1 (centres unmarked) [Example 233]			1	3	
CC(C(=O)C1C(=O)c2ccc(C(=O)c3ccc4c(c3)C(=O)C(C(=O)C(C)c3ccc(F)cc3)C4=O)cc2C1=O)c1ccc(F)cc1 (centres unmarked) [Example 242, 2-[2-(4-fluorophenyl)propanoyl]-5-{2-[2-(4-fluorophenyl)propanoyl]-1,3-dioxo-2,3-dihydro-1H-indene-5-carbonyl}-2,3-dihydro-1H-indene-1,3-dione]			13	31	
O=C(NC1CCS(=O)(=O)C1)C1C(=O)c2ccc(S(=O)(=O)c3ccc4c(c3)C(=O)C(C(=O)NC3CCS(=O)(=O)C3)C4=O)cc2C1=O (centres unmarked) [Example 360, N-(1,1-dioxo-1λ^6-thiolan-3-yl)-5-({2-[(1,1-dioxo-1λ^6-thiolan-3-yl)carbamoyl]-1,3-dioxo-2,3-dihydro-1H-inden-5-yl}sulfonyl)-1,3-dioxo-2,3-dihydro-1H-indene-2-carboxamide]			23	59	
CC(C)(C)OC(=O)N1CC=C[C@H]1C(=O)C1C(=O)c2ccc(C(=O)c3ccc4c(c3)C(=O)C(C(=O)[C@@H]3C=CCN3C(=O)OC(C)(C)C)C4=O)cc2C1=O (stereo partly drawn) [Example 122, tert-butyl (2S)-2-(5-{2-[(2S)-1-[(tert-butoxy)carbonyl]-2,5-dihydro-1H-pyrrole-2-carbonyl]-1,3-dioxo-2,3-dihydro-1H-indene-5-carbonyl}-1,3-dioxo-2,3-dihydro-1H-indene-2-carbonyl)-2,5-dihydro-1H-pyrrole-1-carboxylate]					~3
Cc1ccccc1C(=O)CCC(=O)C1C(=O)c2ccc(C(=O)c3ccc4c(c3)C(=O)C(C(=O)CCC(=O)c3ccccc3C)C4=O)cc2C1=O (centres unmarked) [Example 252, 2-[4-(2-methylphenyl)-4-oxobutanoyl]-5-{2-[4-(2-methylphenyl)-4-oxobutanoyl]-1,3-dioxo-2,3-dihydro-1H-indene-5-carbonyl}-2,3-dihydro-1H-indene-1,3-dione]			14	37	3
CC(C)(C)OC(=O)N[C@@H](C(=O)C1C(=O)c2ccc(C(=O)c3ccc4c(c3)C(=O)C(C(=O)[C@H](NC(=O)OC(C)(C)C)c3ccccc3)C4=O)cc2C1=O)c1ccccc1 (stereo partly drawn) [Example 170, tert-butyl N-[(1R)-2-(5-{2-[(2R)-2-{[(tert-butoxy)carbonyl]amino}-2-phenylacetyl]-1,3-dioxo-2,3-dihydro-1H-indene-5-carbonyl}-1,3-dioxo-2,3-dihydro-1H-inden-2-yl)-2-oxo-1-phenylethyl]carbamate]	76	85			3.4
C[C@@H](C(=O)C1C(=O)c2ccc(C(=O)c3ccc4c(c3)C(=O)C(C(=O)[C@H](C)N(C)C(=O)OC(C)(C)C)C4=O)cc2C1=O)N(C)C(=O)OC(C)(C)C (stereo partly drawn) [Example 155, tert-butyl N-[(2S)-1-(5-{2-[(2S)-2-{[(tert-butoxy)carbonyl](methyl)amino}propanoyl]-1,3-dioxo-2,3-dihydro-1H-indene-5-carbonyl}-1,3-dioxo-2,3-dihydro-1H-inden-2-yl)-1-oxopropan-2-yl]-N-methylcarbamate]	95	100			2.1
CSCC(=O)C1C(=O)c2ccc(S(=O)(=O)c3ccc4c(c3)C(=O)C(C(=O)CSC)C4=O)cc2C1=O (centres unmarked) [Example 282, 2-[2-(methylsulfanyl)acetyl]-5-({2-[2-(methylsulfanyl)acetyl]-1,3-dioxo-2,3-dihydro-1H-inden-5-yl}sulfonyl)-2,3-dihydro-1H-indene-1,3-dione]			29	45	3
CC(C)(C)OC(=O)N1CC[C@@H](C(=O)C2C(=O)c3ccc(S(=O)(=O)c4ccc5c(c4)C(=O)C(C(=O)[C@@H]4CCN(C(=O)OC(C)(C)C)C4)C5=O)cc3C2=O)C1 (stereo partly drawn) [Example 376, tert-butyl (3R)-3-[5-({2-[(3R)-1-[(tert-butoxy)carbonyl]pyrrolidine-3-carbonyl]-1,3-dioxo-2,3-dihydro-1H-inden-5-yl}sulfonyl)-1,3-dioxo-2,3-dihydro-1H-indene-2-carbonyl]pyrrolidine-1-carboxylate]			22	62	
O=C1c2ccc(Oc3ccc4c(c3)C(=O)C(C(=O)C3CCC3)C4=O)cc2C(=O)C1C(=O)C1CCC1 (centres unmarked) [Example 297, 2-cyclobutanecarbonyl-5-[(2-cyclobutanecarbonyl-1,3-dioxo-2,3-dihydro-1H-inden-5-yl)oxy]-2,3-dihydro-1H-indene-1,3-dione]			38	100	1.74
O=C1CC(=O)c2cc(Oc3ccc4c(c3)C(=O)CC4=O)ccc21 [Example 7, 5-(2,3-dihydro-1,3dioxo-1h-inden-6-yloxy)-2,3-dihydro-1,3-dioxo-1h-indene]					1.12
CC(C)(C)OC(=O)N1CCCC[C@H]1C(=O)C1C(=O)c2ccc(-c3ccc4c(c3)C(=O)C(C(=O)[C@@H]3CCCCN3C(=O)OC(C)(C)C)C4=O)cc2C1=O (stereo partly drawn) [Example 212, tert-butyl (2S)-2-{2′-[(2S)-1-[(tert-butoxy)carbonyl]piperidine-2-carbonyl]-1,1′,3,3′-tetraoxo-1H,1′H,2H,2′H,3H,3′H-[5,5′-biindene]-2-carbonyl}piperidine-1-carboxylate]	91	88			5.5
CC(=O)OC[C@H]1O[C@@H](OC(C)=O)[C@H](NC(=O)C2C(=O)c3ccc(S(=O)(=O)c4ccc5c(c4)C(=O)C(C(=O)N[C@H]4[C@H](OC(C)=O)O[C@H](COC(C)=O)[C@@H](OC(C)=O)[C@@H]4OC(C)=O)C5=O)cc3C2=O)[C@@H](OC(C)=O)[C@@H]1OC(C)=O (stereo partly drawn) [Example 400, [(2R,3S,4R,5R,6S)-3,4,6-tris(acetyloxy)-5-{5-[(1,3-dioxo-2-{[(2S,3R,4R,5S,6R)-2,4,5-tris(acetyloxy)-6-[(acetyloxy)methyl]oxan-3-yl]carbamoyl}-2,3-dihydro-1H-inden-5-yl)sulfonyl]-1,3-dioxo-2,3-dihydro-1H-indene-2-amido}oxan-2-yl]methyl acetate]			17	21	
